Results reported in ChEMBL document CHEMBL1159284, “A Short Enantioselective Synthesis of a Biologically Active Compound from Persea americana” (J Nat Prod, 1995).

What was measured:
[1] = tested on: Mus musculus; assay: Toxicity in lactating mouse assessed as widespread mammary gland necrosis at 200 mg/kg; format: organism-based; parameters: dose 200 mg/kg; conditions: in vivo
[2] = tested on: Mus musculus; assay: Toxicity in lactating mouse assessed as widespread mammary gland necrosis at 50 to 100 mg/kg; format: organism-based; parameters: dose 50-100 mg/kg; conditions: in vivo

Structure (SMILES) | Activity [1] | Activity [2]
CCCCC/C=C\C/C=C\CCCCCCCC(=O)C[C@H](O)COC(C)=O | Not Active | –
CCCCC/C=C\C/C=C\CCCCCCCC(=O)C[C@@H](O)COC(C)=O | – | Active
